US20250176553A1, “SOLUTION FOR […] AND METHOD OF PRODUCING THEREOF” (OCT, Inc., priority 2022, published 2025)
“And” between values parts separate entries of the source, which are not always exact repeats. Equal entries are not always repeated. Where two headings read alike, the source gives them in different places.

Columns and labels:
[1] = system: Streptococcus mutans biofilms; details: for Absorbance, Average value: average of samples 1-6; for Absorbance, Average value / Absorbance: 590 nm; for Absorbance: individual samples 1-6, 24 hours culture
Excerpt: (§1) FIGS. 3 to 6 show the experimental results in which Streptococcus mutans strains are actually used. Streptococcus mutans is a facultative anaerobe and a gram-positive streptococcus. It produces insoluble, sticky glucans that stick to tooth surfaces. It is one of the bacteria that mainly cause dental caries. THB (TODD-HEWITT BROTH) supplemented with 2% (w/v) sucrose was used as the medium. Sucrose is a sugar composed of the monosaccharides glucose and fructose with an α-1,2-glycosidic linkage and one of the disaccharides. THB manufactured by Becton, Dickinson and Company was used. For sucrose, “CASRN” manufactured by FUJIFILM Wako Pure Chemical Corporation was used. The plate used for culture was a Thermo Scientific Nunclon Delta Surface 96 well. The incubator used was a Panasonic multi-gas incubator MCO-5MUV-PJ. Culturing was conducted at 37° C. under an atmosphere of 5% CO2 gas, 5% O2 gas and 90% N2 gas.
(§2) Devices and the like used to measure residual biofilms are described below. For staining, 0.1% Crystal Violet from FUJIFILM Wako Pure Chemical Corporation was used. It was dissolved in distilled water to 0.1% (w/v).
(§3) Life Technologies EVOS XL Core was used as the microscope for photography. […] Co., Ltd. was used as the absorption spectrometer. The data processing software was “SF6” and the absorbance wavelength was 590 nm.
Streptococcus mutans was diluted in 2% sucrose-containing THB and 10 inoculated samples of 100 μL each were plated onto cell culture plates (Thermo Scientific Nunclon Delta Surface 96well). […] No test solution was added to one of the 10 inoculated samples.
(§4) The samples were then cultured in a multi-gas incubator for 24 hours to allow biofilms to form on the bottom of each plate. After culturing, the plates were washed with distilled water and stained with 0.1% Crystal Violet solution for 10 minutes. After staining, the plates were washed again with distilled water, dried and then observed and photographed with a bright field inverted microscope.
(§5) Crystal Violet was then extracted with 100 μL of 99.5% ethanol (FUJIFILM Wako Pure Chemical Corporation), and the absorbance was measured at a wavelength of 590 nm using an absorption spectrometer grating microplate reader.

[2] = system: hibiscus leaf; details: adjusted to pH 0.5; leaf surface wetted, observed after 20 hours
Experimental: A hibiscus leaf was divided into left and right halves by the central vein. […] The surfaces of the half leaves were observed after 20 hours.

[3] = system: Fn bacteria biofilms; details: for Absorbance, Average value: average of samples 1-5
Experimental: THB (TODD-HEWITT BROTH) supplemented with 2% (w/v) sucrose was used as the medium. Sucrose is a sugar composed of the monosaccharides glucose and fructose with an α-1,2-glycosidic linkage and one of the disaccharides. THB manufactured by Becton, Dickinson and Company was used. For sucrose, “CASRN” manufactured by FUJIFILM Wako Pure Chemical Corporation was used. The plate used for culture was a Thermo Scientific Nunclon Delta Surface 96 well. The incubator used was a Panasonic multi-gas incubator MCO-5MUV-PJ. Culturing was conducted at 37° C. under an atmosphere of 5% CO2 gas, 5% O2 gas and 90% N2 gas.
Fn bacteria were diluted in 2% sucrose-containing THB and 10 inoculated samples of […] each were plated onto cell culture plates (Thermo Scientific Nunclon Delta Surface 96well). […] No test solution was added to one of the […] inoculated samples.
as §4, with “washed” for “washed again”, “water again” for “water, dried”, “dried.” for “then observed and photographed with a bright field inverted microscope.”
as §5

[4] = system: Streptococcus mutans biofilms; details: for Absorbance, Average value: average of samples 1-6, 590 nm; for Absorbance trend: FIG. 5
Excerpt: as §1, §2, §3
(§6) Streptococcus mutans was diluted in 2% sucrose-containing THB and 10 inoculated samples of 100 μL each were plated onto cell culture plates (Thermo Scientific Nunclon Delta Surface 96well). The samples were then cultured in a multi-gas incubator for 24 hours to allow biofilms to form on the bottom of each plate.
as §4, with “were further” for “were then”, “24 hours.” for “24 hours to allow biofilms to form on the bottom of each plate.”, “photographed using” for “photographed with”
as §5

[5] = for Viscosity: 4 cc added to 150 g test sample, 25° C.
Experimental: The starch syrup used was manufactured by KATO SANGYO CO., LTD. (product name “Kanpy starch syrup”) and the vegetable jelly used was from COOP (manufacturer: Ina Food Industry Co., Ltd.) (product name “Coop Agar”).
Solutions for destroying biofilms adjusted to various pH values and a test solution were added to test mixtures of starch syrup and Coop Agar and the viscosity of each mixture was measured. Viscosity was measured using a “Viscotester (high viscosity type) VT-06” manufactured by RION Co., Ltd.
First, starch syrup and Coop Agar were mixed in a beaker at a ratio of 34 to 5 and the viscosity was measured with a Viscotester (high viscosity type) VT-06. […] The mixture of starch syrup and Coop Agar to be used for the test (test sample) was prepared weighing 150 grams. […] To 150 g of the test sample, 4 cc of the test solution was added and the measurement was performed with a Viscotester (high viscosity type) VT-06. The room temperature was 25° C. and humidity was 63% when the test was conducted.

[6] = system: Streptococcus mutans biofilms; details: for Absorbance, Average value: average of samples 1-6; for Absorbance: individual samples 1-6, medium replaced after biofilm formation, further 24 hours
Excerpt: as §1, §2, §3, §6
The media were removed and the plates were washed with distilled water 24 hours after the start of cultivation. […] The samples were further cultured in a multi-gas incubator for 24 hours. After culturing, the plates were washed with distilled water and stained with 0.1% Crystal Violet solution for 10 minutes. After staining, the plates were washed again with distilled water, dried and then observed and photographed using a bright field inverted microscope.

Compound: [2H]OS(=O)(=O)O[2H] [deuterated sulfuric acid (D2SO4)]
- Colour of stained plate (photograph, remaining biofilm) ([1]; pH 0.8, 1.2 and 1.5, FIG. 3 upper panel): biofilm formation is significantly inhibited and destroyed
- Absorbance, Average value ([1]; pH 0.8): 0.089
- Absorbance ([1]; pH 0.8): 0.089 (3×) and 0.090 (2×) and 0.088
- Absorbance, Average value ([1]; pH 1.2): 0.096
- Absorbance, Average value ([1]; pH 1.5): 0.100
- Absorbance ([1]; pH 2.3): 0.734
- Absorbance ([1]; pH 3.3): 0.876
- Absorbance ([1]; pH 3.7): 0.874
- Absorbance ([1]; pH 4.0): 0.733
- Biofilm formation from absorbance trend ([1]; pH value below 2.3, FIG. 4): almost no biofilm was formed
- Leaf surface damage (white spotted areas, dead leaf cells) [2]: the white spotted areas surrounded by dotted lines are significantly smaller
- Absorbance, Average value ([3]; pH 0.5, 590 nm): 0.123
- Absorbance ([3]; pH 0.5, individual samples 1-5, 590 nm, 24 hours culture): 0.123 (2×) and 0.124 (2×) and 0.122
- Absorbance, Average value ([3]; pH 2.0, 590 nm): 0.320
- Absorbance, Average value ([3]; pH 3.0, 590 nm): 0.386
- Absorbance, Average value ([3]; pH 4.0, 590 nm): 0.425
- Absorbance, Average value ([3]; pH 5.0, 590 nm): 0.441
- Absorbance, Average value ([3]; pH 6.0, 590 nm): 0.465
- Biofilm formation from absorbance trend ([3]; pH value below 4.5, compared to pH 6.0, FIG. 7): biofilm formation was made more difficult
- Colour of stained plate (photograph, remaining biofilm) ([4]; lower pH values, FIG. 3 middle panel): more biofilms were destroyed
- Absorbance, Average value ([4]; pH 0.8): 0.678
- Absorbance, Average value ([4]; pH 1.2): 1.164
- Absorbance, Average value ([4]; pH 1.5): 1.250
- Absorbance, Average value ([4]; pH 2.3): 1.288
- Absorbance, Average value ([4]; pH 2.7): 1.375
- Absorbance, Average value ([4]; pH 3.0): 1.457
- Absorbance, Average value ([4]; pH 3.3): 1.226
- Absorbance, Average value ([4]; pH 3.7): 1.354
- Absorbance, Average value ([4]; pH 4.0): 1.346
- Absorbance trend ([4]; pH value below 1.5): absorbance decreased rapidly
- Absorbance trend ([4]; pH value below 3.0): absorbance decreased gradually
- Viscosity reduction compared to pH 7.0 ([5]; pH 0.5): ⅓
- Viscosity ([5]; test solution pH 0.5): 130 dPa · s
- Viscosity ([5]; test solution pH 2.0): 150 dPa · s
- Viscosity ([5]; test solution pH 3.0): 180 dPa · s
- Viscosity ([5]; test solution pH 4.0): 210 dPa · s
- Viscosity ([5]; test solution pH 5.0): 240 dPa · s
- Viscosity ([5]; test solution pH 6.0): 310 dPa · s
- Colour of stained plate (photograph, remaining biofilm) ([6]; lower pH values, FIG. 3 lower panel): more biofilms were destroyed
- Absorbance, Average value ([6]; pH 0.5): 0.590
- Absorbance ([6]; pH 0.5): 0.438 and 0.570
- Absorbance, Average value ([6]; pH 0.8): 0.729
- Absorbance ([6]; pH 0.8): 0.649 and 0.678
- Absorbance ([6]; pH 1.2): 0.948 and 0.729 and 0.723
- Absorbance, Average value ([6]; pH 2.0): 0.989
- Absorbance ([6]; pH 2.0): 0.951 and 0.966 and 0.921
- Absorbance, Average value ([6]; pH 2.3): 1.083
- Absorbance ([6]; pH 2.3): 1.091 and 1.052 and 1.038
- Absorbance, Average value ([6]; pH 2.7): 1.098
- Absorbance ([6]; pH 2.7): 1.167 and 1.149 and 1.070
- Absorbance, Average value ([6]; pH 3.0): 1.038
- Absorbance ([6]; pH 3.0): 1.036 and 1.113
- Absorbance, Average value ([6]; pH 3.3): 1.113
- Absorbance ([6]; pH 3.3): 1.044 and 1.117 and 1.054
- Absorbance, Average value ([6]; pH 3.7): 1.107
- Absorbance ([6]; pH 3.7): 1.157 and 1.116 and 1.040
- Biofilm destruction from absorbance trend ([6]; pH below 2.0, FIG. 6): biofilms are destroyed

Compound: O=S(=O)(O)O [sulfuric acid (H2SO4), reference compound]
- Leaf surface damage (white spotted areas, dead leaf cells) [2]: areas where leaf cells are dead
